Measurements reported in ChEMBL document CHEMBL4699579, “A Peptidyl Inhibitor that Blocks Calcineurin-NFAT Interaction and Prevents Acute Lung Injury” (J Med Chem, 2020).
Activity calls are given as the source filed them. The rule behind the calls is not given here. Starred links: 1 amine or outer side, 2 acyl side, 3 side chain; linkers in the order of their positions; H or OH if unused. Positions of bridges follow the written chain, without caps; N, C: chain ends. Non-standard residues stand in square brackets, D forms with d. Residues, ends and D or L forms follow the SMILES beside them. Chains are numbered I, II in the order given. *: point of attachment. Benzoyl(2,3-Cl2) = O=C(c1cccc(Cl)c1Cl)*; X3 = CC1(C)SC[C@@H](C(=O)[*:2])N1[*:1]; 2Nal = N[C@@H](Cc1ccc2ccccc2c1)C(=O)O; Tle = CC(C)(C)[C@H](N)C(=O)O; AEEA = NCCOCCOCC(=O)O

Experiments:
Jurkat = experiment: Inhibition of Calcineurin in human Jurkat cells; format: cell-based
Mus musculus [1] = experiment: Anti-inflammatory activity in BALB/c mouse model of LPS-induced ALI assessed as reduction in LPS-induced IL6 in BALF at 5 mg/kg dosed via intranasal insuffIation pre-treated 2 hrs before LPS stimulation for 16 hrs; format: functional, organism-based; settings: dose mg/kg 5-10, time 18.0 hrs
Mus musculus [2] = experiment: Anti-inflammatory activity in BALB/c mouse model of LPS-induced ALI assessed as reduction in LPS-induced IL6 in plasma at 5 mg/kg dosed via intranasal insuffIation pre-treated 2 hrs before LPS stimulation for 16 hrs; format: functional, organism-based; settings: dose mg/kg 5-10, time 18.0 hrs
Mus musculus [3] = experiment: Anti-inflammatory activity in BALB/c mouse model of LPS-induced ALI assessed as reduction in lung wet-to-dry ratios at 5 mg/kg dosed via intranasal insuffIation pre-treated 2 hrs before LPS stimulation for 16 hrs; format: functional, organism-based; settings: dose mg/kg 5-10, time 18.0 hrs
Mus musculus [4] = experiment: Anti-inflammatory activity in BALB/c mouse model of LPS-induced ALI assessed as reduction in LPS-induced TNFalpha in BALF at 10 mg/kg dosed via intranasal insuffIation pre-treated 2 hrs before LPS stimulation for 16 hrs; format: functional, organism-based; settings: time 18.0 hrs
Mus musculus [5] = experiment: Anti-inflammatory activity in BALB/c mouse model of LPS-induced ALI assessed as reduction in lung wet-to-dry ratios at 10 mg/kg dosed via intranasal insuffIation pre-treated 2 hrs before LPS stimulation for 16 hrs; format: functional, organism-based; settings: time 18.0 hrs
Mus musculus [6] = experiment: Anti-inflammatory activity in BALB/c mouse model of LPS-induced ALI assessed as reduction in LPS-induced IL6 in BALF at 10 mg/kg dosed via intranasal insuffIation pre-treated 2 hrs before LPS stimulation for 16 hrs; format: functional, organism-based; settings: time 18.0 hrs
Macrophage [7] = experiment: Inhibition of LPS-induced IL6 production in mouse lung macrophages at 10 uM pre-incubated 4 hrs before LPS stimulation for 8 hrs by ELISA; format: functional, cell-based; settings: time 12.0 hrs
Mus musculus [8] = experiment: Anti-inflammatory activity in BALB/c mouse model of LPS-induced ALI assessed as reduction in LPS-induced TNFalpha in plasma at 10 mg/kg dosed via intranasal insuffIation pre-treated 2 hrs before LPS stimulation for 16 hrs; format: functional, organism-based; settings: time 18.0 hrs
Mus musculus [9] = experiment: Anti-inflammatory activity in BALB/c mouse model of LPS-induced ALI assessed as reduction in LPS-induced extravasated BALF protein in BALF at 5 mg/kg dosed via intranasal insuffIation pre-treated 2 hrs before LPS stimulation for 16 hrs; format: functional, organism-based; settings: dose mg/kg 5-10, time 18.0 hrs
Mus musculus [10] = experiment: Anti-inflammatory activity in BALB/c mouse model of LPS-induced ALI assessed as reduction in number of neutrophils BALF at 10 mg/kg dosed via intranasal insuffIation pre-treated 2 hrs before LPS stimulation for 16 hrs; format: functional, organism-based; settings: time 18.0 hrs
Mus musculus [11] = experiment: Anti-inflammatory activity in BALB/c mouse model of LPS-induced ALI assessed as reduction in LPS-induced TNFalpha in plasma at 5 mg/kg dosed via intranasal insuffIation pre-treated 2 hrs before LPS stimulation for 16 hrs; format: functional, organism-based; settings: dose mg/kg 5-10, time 18.0 hrs
Mus musculus [12] = experiment: Anti-inflammatory activity in BALB/c mouse model of LPS-induced ALI assessed as reduction in LPS-induced TNFalpha in BALF at 5 mg/kg dosed via intranasal insuffIation pre-treated 2 hrs before LPS stimulation for 16 hrs; format: functional, organism-based; settings: dose mg/kg 5-10, time 18.0 hrs
Macrophage [13] = experiment: Inhibition of calcineurin-NFATc3 interaction in mouse bone marrow-derived macrophages assessed as reduction in LPS-induced NFATc3 nuclear translocation at 1 uM pre-incubated before LPS stimulation for 1 hr using biotinylated compound by immunofluorescence staining assay
Mus musculus [14] = experiment: Anti-inflammatory activity in BALB/c mouse model of LPS-induced ALI assessed as reduction in LPS-induced extravasated BALF protein in BALF at 10 mg/kg dosed via intranasal insuffIation pre-treated 2 hrs before LPS stimulation for 16 hrs; format: functional, organism-based; settings: time 18.0 hrs
Mus musculus [15] = experiment: Anti-inflammatory activity in BALB/c mouse model of LPS-induced ALI assessed as reduction in LPS-induced IL6 in plasma at 10 mg/kg dosed via intranasal insuffIation pre-treated 2 hrs before LPS stimulation for 16 hrs; format: functional, organism-based; settings: time 18.0 hrs
Mus musculus [16] = experiment: Anti-inflammatory activity in BALB/c mouse model of LPS-induced ALI assessed as reduction in number of neutrophils BALF at 5 mg/kg dosed via intranasal insuffIation pre-treated 2 hrs before LPS stimulation for 16 hrs; format: functional, organism-based; settings: dose mg/kg 5-10, time 18.0 hrs
Macrophage [17] = experiment: Inhibition of LPS-induced TNFalpha production in mouse lung macrophages at 10 uM pre-incubated 4 hrs before LPS stimulation for 8 hrs by ELISA; format: functional, cell-based; settings: time 12.0 hrs
HeLa = experiment: Toxicity in human HeLa cells assessed as reduction in cell viability up to 25 uM incubated for 72 hrs by MTT assay; format: cell-based
[18] = Toxicity in mouse lung macrophages cells assessed as reduction in cell viability up to 25 uM incubated for 72 hrs by MTT assay; format: tissue-based; settings: macrophage
[19] = Half life in human serum; format: ADME, cell-free
Macrophage [20] = experiment: Inhibition of calcineurin-NFATc3 interaction in mouse lung macrophages assessed as reduction in LPS-induced TNFalpha production at 0.01 to 10 uM pre-incubated 4 hrs before LPS stimulation for 8 hrs by ELISA; format: tissue-based; settings: dose microM 0.01-10, time 12.0 hrs
Macrophage [21] = experiment: Inhibition of calcineurin-NFATc3 interaction in mouse lung macrophages assessed as reduction in LPS-induced IL6 production at 0.01 to 10 uM pre-incubated 4 hrs before LPS stimulation for 8 hrs by ELISA; format: tissue-based; settings: dose microM 0.01-10, time 12.0 hrs
[22] = Half life in 25% human serum at 5 uM at 37 degC by HPLC analysis; format: ADME, cell-free
[23] = Binding affinity to GST-tagged Calcineurin (unknown origin) incubated for 1 hr by fluorescence polarization assay; parameters: species or system Homo sapiens

CC[C@H](C)[C@H](NC(=O)[C@@H](NC(=O)c1cccc(Cl)c1Cl)C(C)(C)C)C(=O)N[C@H](C(=O)N[C@H](C(=O)N[C@H](C(=O)N[C@@H](CCC(N)=O)C(=O)N[C@@H](Cc1c[nH]cn1)C(=O)N[C@H](CC(C)C)C(=O)N[C@@H](CO)C(=O)NCCOCCOCC(=O)N[C@@H](CCCCNC(=O)CC[C@@H]1NC(=O)[C@@H](CCCNC(=N)N)NC(=O)[C@H](CCCNC(=N)N)NC(=O)[C@@H](CCCNC(=N)N)NC(=O)[C@H](CCCNC(=N)N)NC(=O)[C@H](Cc2ccc3ccccc3c2)NC(=O)[C@@H](Cc2ccccc2)NC1=O)C(N)=O)[C@@H](C)O)[C@@H](C)CC)C(C)(C)O
inhibition (Jurkat): Active

CC(C)[C@H](NC(=O)[C@H](C)NC(=O)[C@@H](NC(=O)[C@@H]1CCCN1C(=O)[C@H](Cc1cnc[nH]1)NC(=O)[C@@H]1CCCN1C(=O)CNC(=O)COCCOCCNC(=O)CC[C@@H]1NC(=O)[C@@H](CCCNC(=N)N)NC(=O)[C@H](CCCNC(=N)N)NC(=O)[C@@H](CCCNC(=N)N)NC(=O)[C@H](CCCNC(=N)N)NC(=O)[C@H](Cc2ccc3ccccc3c2)NC(=O)[C@@H](Cc2ccccc2)NC1=O)C(C)C)C(=O)N[C@@H](C)C(=O)N[C@@H](C)C(=O)NCC(=O)N1CCC[C@H]1C(=O)N[C@@H](Cc1c[nH]cn1)C(=O)N[C@@H](CCC(=O)O)C(=O)N[C@@H](CCC(=O)O)C(=O)N[C@@H](CCCCN)C(N)=O
Activity (Mus musculus [1]): inactive | Activity (Mus musculus [2]): inactive | Activity (Mus musculus [3]): inactive | Activity (Mus musculus [4]): inactive | Activity (Mus musculus [5]): inactive | Activity (Mus musculus [6]): inactive | inhibition (Macrophage [7]): Active | Activity (Mus musculus [8]): inactive | Activity (Mus musculus [9]): inactive | Activity (Mus musculus [10]): inactive | Activity (Mus musculus [11]): inactive | Activity (Mus musculus [12]): inactive | inhibition (Macrophage [13]): inactive | Activity (Mus musculus [14]): inactive | Activity (Mus musculus [15]): inactive | Activity (Mus musculus [16]): inactive | inhibition (Macrophage [17]): Active

CC[C@H](C)[C@H](NC(=O)[C@@H](NC(=O)c1cccc(Cl)c1Cl)C(C)(C)C)C(=O)N[C@H](C(=O)N[C@H](C(=O)N[C@H](C(=O)N[C@@H](CCC(N)=O)C(=O)N[C@@H](Cc1c[nH]cn1)C(=O)N[C@H](CC(C)C)C(=O)N[C@@H](CO)C(=O)NCCOCCOCC(=O)N[C@@H](CCCCNC(=O)CC[C@@H]1NC(=O)[C@@H](CCCNC(=N)N)NC(=O)[C@H](CCCNC(=N)N)NC(=O)[C@@H](CCCNC(=N)N)NC(=O)[C@H](CCCNC(=N)N)NC(=O)[C@H](Cc2ccc3ccccc3c2)NC(=O)[C@@H](Cc2ccccc2)NC1=O)C(N)=O)[C@@H](C)O)[C@@H](C)CC)C(C)(C)C (I: {Benzoyl(2,3-Cl2)}-[Tle]I[Tle]ITQH[dL]S[AEEA]K-NH2 / II: cyclo([2Nal]R[dR]R[dR]E[dF]); amide I:11-II:6)
Activity (Mus musculus [1]): inactive | Activity (Mus musculus [2]): inactive | Activity (Mus musculus [3]): inactive | Activity (Mus musculus [4]): inactive | Activity (Mus musculus [5]): inactive | Activity (HeLa): Non-Toxic | Activity [18]: Non-Toxic | Activity (Mus musculus [6]): inactive | Activity (Mus musculus [8]): inactive | Activity (Mus musculus [9]): inactive | half-life [19]: > 24 h | inhibition (Macrophage [20]): inactive | Activity (Mus musculus [10]): inactive | Activity (Mus musculus [11]): inactive | Activity (Mus musculus [12]): inactive | inhibition (Macrophage [21]): inactive | Activity (Mus musculus [14]): inactive | Activity (Mus musculus [15]): inactive | Activity (Mus musculus [16]): inactive

CC[C@H](C)[C@H](NC(=O)[C@@H](NC(=O)[C@@H]1CCCN1C(=O)[C@H](Cc1cnc[nH]1)NC(=O)[C@@H]1CCCN1C(=O)CN)C(C)C)C(=O)N[C@H](C(=O)N[C@H](C(=O)N[C@H](C(=O)NCC(=O)N1CCC[C@H]1C(=O)N[C@@H](Cc1cnc[nH]1)C(=O)N[C@@H](CCC(=O)O)C(=O)N[C@@H](CCC(=O)O)C(=O)O)[C@@H](C)O)[C@@H](C)CC)C(C)C
half-life at 5 µM [22]: 1 h

CC[C@H](C)[C@H](NC(=O)[C@@H](NC(=O)[C@@H](NC(=O)[C@@H](NC(=O)[C@@H]1CCCN1C(=O)[C@H](Cc1cnc[nH]1)NC(=O)[C@@H]1CCCN1C(=O)CN)C(C)(C)C)[C@@H](C)CC)C(C)(C)C)C(=O)N[C@H](C(=O)NCC(=O)N1[C@H](C(=O)N[C@@H](Cc2cnc[nH]2)C(=O)N[C@@H](CCC(=O)O)C(=O)N[C@@H](CCC(=O)O)C(=O)O)CSC1(C)C)[C@@H](C)O (H-GPHP[Tle]I[Tle]ITG[X3]HEE-OH)
half-life at 5 µM [22]: 6 h | Kd [23]: 2.6 nM
